Assay results published in patent publication US6627639B2, “Uses for indoletetrahydropyridine derivatives of 2,3-dihydro-7H-[1,4]dioxino-[2,3-e]indole” (Wyeth, priority 2001, dated 2003).

Assays:
serotonin transporter = biological target: T1, serotonin transporter (Rattus norvegicus, UniProt P31652); experiment: 3H-paroxetine displacement, serotonin transporter affinity; assay type: binding
T1 construct: displace ^3H-paroxetine from male rat frontal cortical membranes; from tissue; host or cells: male rat frontal cortex membranes

[1] = biological target: T2, cloned human 5-HT1A receptors (Homo sapiens, UniProt P08908); experiment: 35S-GTPγS binding assay, 5-HT1A antagonist function; assay type: biochemical; conditions: reversal of 8-OHDPAT effect on 35S-GTPγS binding
T2 construct: expressed in transfected cells
T2 sequence (P08908 1-422): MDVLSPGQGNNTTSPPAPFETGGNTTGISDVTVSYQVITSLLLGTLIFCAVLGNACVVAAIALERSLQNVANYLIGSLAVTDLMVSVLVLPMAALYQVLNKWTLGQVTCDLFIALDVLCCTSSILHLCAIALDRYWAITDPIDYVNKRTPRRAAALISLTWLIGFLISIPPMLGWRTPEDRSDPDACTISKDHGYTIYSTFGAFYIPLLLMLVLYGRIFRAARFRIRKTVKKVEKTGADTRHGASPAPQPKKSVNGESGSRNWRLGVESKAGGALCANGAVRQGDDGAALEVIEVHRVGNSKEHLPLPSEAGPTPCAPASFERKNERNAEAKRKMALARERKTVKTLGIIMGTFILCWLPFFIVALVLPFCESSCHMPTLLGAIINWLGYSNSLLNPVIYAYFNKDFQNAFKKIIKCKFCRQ
Description: Antagonist activity at 5-HT1A receptors was established by using a ^35S-GTPγS binding assay similar to that used by Lazareno and Birdsall (Br. J. Pharmacol. 109: 1120, 1993), in which the test compound's ability to affect the binding of ^35S-GTPγS to membranes containing cloned human 5-HT1A receptors was determined. Agonists produce an increase in binding whereas antagonists produce no increase but rather reverse the effects of the standard agonist 8-OHDPAT. The test compound's maximum inhibitory effect is represented as the Imax, while its potency is defined by the IC50.

human 5-HT1A receptors = biological target: T3, human 5-HT1A receptors (Homo sapiens, UniProt P08908); experiment: [3H] 8-OHDPAT displacement, 5-HT1A receptor affinity; assay type: binding
T3 construct: expressed in transfected cells; host or cells: CHO cells
T3 sequence (P08908 1-422): T2 sequence (P08908 1-422)
Source text: High affinity for the serotonin 5-HT1A receptor was established by testing the claimed compound's ability to displace [^3H] 8-OHDPAT (dipropylaminbtetralin) from the 5-HT1A serotonin receptor following a modification of the procedure of Hall et al., J. Neurochem. 44, 1685 (1985) which utilizes CHO cells stably transfected with human 5-HT1A receptors.

T1 sequence (P31652 whole entry): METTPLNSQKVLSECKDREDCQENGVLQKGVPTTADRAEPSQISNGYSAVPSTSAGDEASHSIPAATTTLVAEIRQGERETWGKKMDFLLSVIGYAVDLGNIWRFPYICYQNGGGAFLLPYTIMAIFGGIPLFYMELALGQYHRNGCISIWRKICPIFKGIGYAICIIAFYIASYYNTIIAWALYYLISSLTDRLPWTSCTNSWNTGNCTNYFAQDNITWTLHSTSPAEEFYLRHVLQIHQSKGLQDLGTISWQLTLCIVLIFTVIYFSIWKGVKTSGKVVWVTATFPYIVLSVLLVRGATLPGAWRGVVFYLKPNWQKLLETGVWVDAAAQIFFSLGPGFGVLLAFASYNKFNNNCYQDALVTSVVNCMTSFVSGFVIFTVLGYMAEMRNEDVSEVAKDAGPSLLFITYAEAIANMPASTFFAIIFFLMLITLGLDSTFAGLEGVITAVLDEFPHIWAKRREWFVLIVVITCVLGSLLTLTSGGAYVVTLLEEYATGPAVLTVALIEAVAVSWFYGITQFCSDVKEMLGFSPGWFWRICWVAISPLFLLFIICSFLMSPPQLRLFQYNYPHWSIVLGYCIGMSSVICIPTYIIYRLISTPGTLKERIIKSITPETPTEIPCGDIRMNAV

Structure (SMILES)	melting point [°C]	Ki (serotonin transporter) [nM]	5-HT1A Function Imax (maximum inhibitory effect) [1]	IC50 [1] [nM]	Ki (human 5-HT1A receptors) [nM]
CCc1cc2c3c(ccc2[nH]1)OCC(CN1CC=C(c2c[nH]c4ccccc24)CC1)O3 (stereo not shown) (hydrate or solvate) [Example 4, 8-Ethyl-2-[(4-(1H-indol-3-yl)-3,6-dihydropyridin-1(2H)-yl)methyl]-2,3-dihydro-7H-[1,4]dioxino[2,3-e]indole]	175 to 177	–	–	–	–
CCc1cc2c3c(ccc2[nH]1)OCC(CN1CC=C(c2c[nH]c4ccc(F)cc24)CC1)O3 (stereo not shown) (hydrate or solvate) [Example 5, 8-Ethyl-2-[(4-(5-fluoro-1H-indol-3-yl)-3,6-dihydropyridin-1(2H)-yl)methyl]2,3-dihydro-7H-[1,4]dioxino[2,3-e]indole]	81 to 82	–	–	–	–
Cc1cc2c3c(ccc2[nH]1)OCC(CN1CC=C(c2c[nH]c4ccccc24)CC1)O3 (stereo not shown) [Example 1, 2-[(4-(1H-Indol-3-yl)-3,6-dihydropyridin-1(2H)-yl)methyl]-8-methyl-2,3-dihydro-7H-[1,4]dioxino[2,3-e]indole]	212 to 215	3.44	100	16	0.45
C1=C(c2c[nH]c3ccccc23)CCN(CC2COc3ccc4[nH]ccc4c3O2)C1 (stereo not shown) [Example 2, 2-[(4-(1H-Indol-3-yl)-3,6-dihydropyridin-1(2H)-yl)methyl]-2,3-dihydro-7H-[1,4]dioxino[2,3-e]indole]	126	0.77	52	23	1.55
Fc1ccc2[nH]cc(C3=CCN(CC4COc5ccc6[nH]ccc6c5O4)CC3)c2c1 (stereo not shown) [Example 3, 2-{[4-(5-Fluoro-1H-indol-3-yl)-3,6-dihydropyridin-1(2H)-yl]methyl}-2,3-dihydro-7H-[1,4]dioxino[2,3-e]indole]	112	1.23	100	11.3	2.45
CCc1cc2c3c(ccc2[nH]1)OCC(CN1CC=C(c2c[nH]c4ccccc24)CC1)O3 (stereo not shown) [Example 4, 8-Ethyl-2-[(4-(1H-indol-3-yl)-3,6-dihydropyridin-1(2H)-yl)methyl]-2,3-dihydro-7H-[1,4]dioxino[2,3-e]indole]	–	10	78	73	4.56
CCc1cc2c3c(ccc2[nH]1)OCC(CN1CC=C(c2c[nH]c4ccc(F)cc24)CC1)O3 (stereo not shown) [Example 5, 8-Ethyl-2-[(4-(5-fluoro-1H-indol-3-yl)-3,6-dihydropyridin-1(2H)-yl)methyl]2,3-dihydro-7H-[1,4]dioxino[2,3-e]indole]	–	10	98	265	26.3
